Experiments:
aging ASIC3+/+ mice [1] = test: Insulin tolerance test (ITT) with ASIC3 blockers in aging mice; type: in vivo; conditions: salicylic acid 14 mg/kg or APETx2 0.23 mg/kg injected intraperitoneally with insulin 0.5 mU/g
Procedure: (§1) ASIC3−/− mice were generated as described in Chen et al., Proc. Natl. Acad. Sci. USA 99, 8992-8997, 2002. Congenic 129 mice were derived from breeding ASIC3 chimera with female 129S2/SvPasCrl wild type mice. All mice were raised in a 12:12-h light-dark cycle at 25° C. and 40% to 70% humidity. All experiments involved use of female mice in different age groups. The animals were bred in a specific pathogen-free facility and cared for in accordance with the Guide for the Use of Laboratory Animals (National Academy Press, Washington D.C.). The experimental protocol was approved by the animal use committee of Academia Sinica.
(§2) Mice of 9, 16, or 25 weeks old were tested for glucose tolerance (GTT) and those of 18 or 27 weeks old for insulin tolerance (ITT). For GTT, the mice fasted overnight then were injected with glucose intraperitoneally at 1.5 mg/g body weight. For ITT, the mice were given free access to food and injected with insulin intraperitoneally at 0.5 mU/g body weight. The glucose levels were measured in blood withdrawn from the tail vein. To study effects of ASIC3 blockers, salicylic acid (14 mg/kg) or APETx2 (0.23 mg/kg) were injected with glucose or insulin intraperitoneally.
(§3) To test whether ASIC3 selective blockers could reverse age-dependent glucose intolerance and insulin resistance, we tested the effects of salicylic acid and APETx2 in the aging mouse groups. […]

rodents = conditions: salicylate 120 mg/kg/day, continual treatment; cited from earlier work
aging ASIC3+/+ mice [2] = test: Glucose tolerance test (GTT) with ASIC3 blockers in aging mice; type: in vivo; conditions: salicylic acid 14 mg/kg or APETx2 0.23 mg/kg injected intraperitoneally with glucose 1.5 mg/g after overnight fast
Procedure: as §1, §2, §3

WAT-expressed ASIC3 = biological target: T1, WAT-expressed ASIC3 (Mus musculus, UniProt Q6X1Y6); test: Whole-cell patch recording of acid-evoked currents in cultured SVF adipose cells; type: cell-based; conditions: pH 5.0 evoked currents, SVF adipose cells from mice 8 to 10 weeks old, voltage-clamp
T1 construct: Whole cell recordings were made of primary culture adipose cells; endogenous in cells; host or cells: primary stromal-vascular fraction (SVF) adipose cells from periovarian white adipose tissue of female mice
T1 sequence (Q6X1Y6 1-530): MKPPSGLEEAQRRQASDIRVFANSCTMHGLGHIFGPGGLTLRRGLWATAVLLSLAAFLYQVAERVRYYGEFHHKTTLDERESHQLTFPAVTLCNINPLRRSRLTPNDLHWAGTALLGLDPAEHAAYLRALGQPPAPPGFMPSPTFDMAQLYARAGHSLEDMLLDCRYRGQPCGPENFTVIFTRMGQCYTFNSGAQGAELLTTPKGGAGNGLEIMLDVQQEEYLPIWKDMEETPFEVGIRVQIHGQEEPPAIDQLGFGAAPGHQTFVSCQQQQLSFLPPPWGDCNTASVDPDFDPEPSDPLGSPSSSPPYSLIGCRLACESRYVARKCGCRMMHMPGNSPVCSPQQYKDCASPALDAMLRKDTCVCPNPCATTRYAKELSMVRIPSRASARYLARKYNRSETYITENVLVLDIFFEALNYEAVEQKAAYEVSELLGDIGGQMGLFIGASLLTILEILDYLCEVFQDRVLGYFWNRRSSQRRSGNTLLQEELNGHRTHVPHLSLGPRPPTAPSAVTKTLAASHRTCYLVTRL
Procedure: Fat pads of periovarian white adipose tissue (WAT) were isolated from female mice. One gram of the isolated fat pad was digested with 2 mg/ml of collagenase type VIII (Sigma) in 4 ml Dulbecco's modified Eagle's medium (DMEM) at 37° C. for 1 hour. Then, the digested tissues were centrifuged at 200×g for 5 minutes at 4° C. The supernatant, which contains mature adipocytes, was collected for RNA isolation. The cell pellet, the stromal-vascular fraction (SVF), consisted of mesenchynal cells (adipoblasts) and immature adipocytes (adipocyte precursors and postadipocytes) (Van, The adipocyte precusor cell. In: New perspectives in adipose tissue:structure, function, and development. Butterworths, Borough Green, England, chapt. 15, 353-382, 1985). The SVFs were collected for RNA isolation or re-suspended for cell culture in DMEM containing 10% fetal calf serum and antibiotics. SVF cells were plated at a concentration of 10^5 cells per glass cover slide (12 mm in diameter) and maintained at 37° C. in 5% humidified carbon dioxide. The cultured cells then underwent whole-cell patch recording in 5 days. […]
To determine whether WAT-expressed ASIC3 is functional, we applied whole-cell patch recording to examine the acid-evoked currents in cultured SVF cells isolated from mice 8 to 10 weeks old. […]

IKKβ = biological target: T2, IKKβ (Mus musculus, UniProt O88351); conditions: salicylate 120 mg/kg/day, continual treatment, rodents; cited from earlier work
T2 construct: host or cells: rodents (in vivo)
T2 sequence (O88351 1-757): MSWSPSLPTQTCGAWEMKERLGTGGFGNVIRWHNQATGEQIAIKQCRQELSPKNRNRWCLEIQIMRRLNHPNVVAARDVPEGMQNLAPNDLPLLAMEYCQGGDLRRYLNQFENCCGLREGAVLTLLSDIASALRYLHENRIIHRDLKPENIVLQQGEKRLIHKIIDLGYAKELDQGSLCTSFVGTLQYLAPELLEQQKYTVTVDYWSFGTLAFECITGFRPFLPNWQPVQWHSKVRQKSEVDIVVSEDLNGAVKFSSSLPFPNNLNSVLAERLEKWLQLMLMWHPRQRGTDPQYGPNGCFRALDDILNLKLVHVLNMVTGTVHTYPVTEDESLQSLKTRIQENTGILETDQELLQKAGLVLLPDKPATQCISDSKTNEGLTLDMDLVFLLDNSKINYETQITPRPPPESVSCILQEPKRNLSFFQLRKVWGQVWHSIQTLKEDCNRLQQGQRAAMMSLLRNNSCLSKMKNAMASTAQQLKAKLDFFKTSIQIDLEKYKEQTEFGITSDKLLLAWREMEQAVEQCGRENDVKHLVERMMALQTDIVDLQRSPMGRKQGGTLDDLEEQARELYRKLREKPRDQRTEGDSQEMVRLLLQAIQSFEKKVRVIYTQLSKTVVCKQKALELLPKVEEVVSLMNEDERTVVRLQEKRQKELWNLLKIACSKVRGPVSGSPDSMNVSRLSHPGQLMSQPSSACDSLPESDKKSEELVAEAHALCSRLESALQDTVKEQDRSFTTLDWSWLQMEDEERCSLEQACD

Row | Compound | effect on insulin tolerance test / insulin sensitivity (ITT) (aging ASIC3+/+ mice [1]) | effect on obesity- and diet-induced insulin resistance (rodents) | effect on age-dependent glucose tolerance (GTT) (aging ASIC3+/+ mice [2]) | sensitivity of acid-induced inward currents to blocker (WAT-expressed ASIC3) | effect on IKKβ activity (IKKβ)
1 | O=C(O)c1ccccc1O [salicylic acid] | not affect insulin tolerance test | reversed obesity- and diet-induced insulin resistance | reverse in part the age-dependent effect of glucose tolerance | sensitive | disrupted IKKβ activity
2 | APETx2 | significantly enhance the insulin sensitivity | – | effectively reverse the age-dependent effect of glucose tolerance | sensitive | –
